Measurements taken from article PMC3660459 (PLoS ONE, 2013).
≈ marks a conversion by molar mass, not a printed value. Where “and” joins values, the source holds several entries; their conditions need not be identical. Identical values can stand only once.

Columns and labels:
F. tularensis Schu S4 [1] = format: cell-based, Francisella tularensis subspecies tularensis Schu S4
F. tularensis Schu S4 [2] = test: microbe, parasite or virus in culture; format: cell-based, Francisella tularensis subspecies tularensis Schu S4; conditions: Francisella tularensis, SCHUS4
[3] = molecular target: NH3-dependent NAD^+ synthetase (nadE); conditions: read-out: enzymatic IC50; cited from earlier work
B. anthracis Sterne = conditions: cited from earlier work

Row | Compound | Growth Inhibition (F. tularensis Schu S4 [1]) | further results
1 | Nc1nc(NC2CC2)c2ncn([C@H]3C=C[C@@H](CO)C3)c2n1 [Compound 1, [n]2(c3nc(nc(c3nc2)NC4CC4)N)[C@@H]1C[C@@H](C = C1)CO] | No | 
2 | CC1(C)S[C@@H]2[C@H](NC(=O)COc3ccccc3)C(=O)N2[C@H]1C(=O)O [Compound 37, S1[C@H]2N([C@H](C1(C)C)C( = O)[O-])C( = O)[C@H]2NC( = O)COc3ccccc3] | No | 
3 | Nc1nc(N)c2nc(CNc3ccc(C(=O)O)cc3)cnc2n1 [Compound 20, N(Cc2nc3c(nc(nc3N)N)nc2)c1ccc(cc1)C( = O)[O-]] | No | 
4 | NC(=O)c1ccc(-c2ccc(/C=C3/C(=O)NN(c4ccc(F)cc4)C3=O)o2)cc1 [Compound 10, Fc1ccc(cc1)N2NC( = O)\C( = C\c3[o]c(cc3)c4ccc(cc4)C( = O)N)\C2 = O] | No | 
5 | Cc1ccc(NC2OCC(O)C(O)C2O)cc1 (centres unmarked) [Compound 29, N(C2OCC(C(C2O)O)O)c1ccc(cc1)C] | No | 
6 | NC(=O)c1ncn([C@@H]2O[C@H](CO)[C@@H](O)[C@H]2O)c1O [Compound 28, [n]2(cnc(c2O)C( = O)N)[C@@H]1O[C@@H]([C@H]([C@H]1O)O)CO] | No | 
7 | Nc1nc(O)c2nc(CNc3ccc(C(=O)O)cc3)cnc2n1 [Compound 19, N(Cc2nc3c(nc(nc3O)N)nc2)c1ccc(cc1)C( = O)O] | No | 
8 | Cc1cc2ccccc2n1CC(=O)NCc1cccnc1N(C)C [Compound 18, [n]2(c3c(cc2C)cccc3)CC( = O)NCc1c(nccc1)N(C)C] | No | 
9 | OCC1OC(Oc2ccc(Cl)cc2Cl)C(O)C(O)C1O (centres unmarked) [Compound 24, Clc1c(ccc(c1)Cl)OC2OC(C(C(C2O)O)O)CO] | showed activity against the bacteria and Yes | Toxicity (RAW 264.7 cells): non-toxic; MIC (F. tularensis Schu S4 [2]): > 125 µg/mL and ~400 µM
10 | Cc1nn2c(=O)c3ccccc3[nH]c2c1C=O [Compound 13, [n]21nc(c(c2Nc3c(cccc3)C1 = O)C = O)C] | showed activity against the bacteria and Yes | Toxicity (RAW 264.7 cells): non-toxic; MIC (F. tularensis Schu S4 [2]): > 125 µg/mL and ~400 µM
11 | NC(Cc1ccc(Br)s1)C(=O)O (centres unmarked) [Compound 7, [s]1c(ccc1CC(N)C( = O)O)Br] | No | 
12 | O=C1NN(c2cccc(Br)c2)C(=O)/C1=C\c1ccc(-c2ccccc2C(=O)O)o1 [Compound 9, Brc1cc(ccc1)N2NC( = O)\C( = C\c3[o]c(cc3)c4c(cccc4)C( = O)O)\C2 = O] | No | 
13 | O[C@@H]1[C@@H](O)[C@H](Nc2ccc(Br)cc2)OC[C@H]1O [Compound 27, Brc1ccc(cc1)N[C@@H]2OC[C@H]([C@@H]([C@H]2O)O)O] | No | 
14 | O=C(Cn1cc(/C=C/c2nc(O)nc(O)c2[N+](=O)[O-])c2ccccc21)Nc1ccc(F)cc1 [Compound 36, Fc1ccc(cc1)NC( = O)C[n]2c3c(c(c2)\C = C\c4nc(nc(c4[N+]( = O)[O-])O)O)cccc3] | No | 
15 | O=C1/C(=C\c2ccc(-n3ccnc3)cc2)Oc2cc(O)ccc21 [Compound 5, [n]4(cncc4)c1ccc(cc1)\C = C2\Oc3c(ccc(c3)O)C\2 = O] | showed activity against the bacteria and Yes | Toxicity (RAW 264.7 cells): non-toxic; MIC (F. tularensis Schu S4 [2]): > 125 µg/mL
16 | NC(=O)c1nc[nH]c1C(N)=O [Compound 21, [nH]1cnc(c1C( = O)N)C( = O)N] | No | 
17 | Nc1ccccc1CN1C(=O)c2ccccc2C1=O [Compound 15, N2(C( = O)c3c(cccc3)C2 = O)Cc1c(cccc1)N] | No | 
18 | CC(C)[C@H](N)C(=O)OCCOCn1cnc2c(O)nc(N)nc21 [Compound 34, [n]1(c2nc(nc(c2nc1)O)N)COCCOC( = O)[C@@H](N)C(C)C] | No | 
19 | O=[N+]([O-])c1ccc(O)c(/C=N/c2cccc(O)c2)c1 [Compound 35, [N+]( = O)([O-])c1cc(c(cc1)O)\C = N\c2cc(ccc2)O] | showed activity against the bacteria and Yes | IC50 [3]: 2.5 µM; MIC (F. tularensis Schu S4 [2]): 32 µg/mL (≈ 124 µM); MIC (B. anthracis Sterne): > 387 µM; Reduction of growth versus no-compound control (F. tularensis Schu S4 [1]): completely abolished bacterial growth
20 | CC1=CC(O)(c2ccccc2)N(C(=O)c2ccncc2)N1 (centres unmarked) [Compound 39, N2(NC( = CC2(O)c3ccccc3)C)C( = O)c1ccncc1] | No | 

Row | Compound | Growth Inhibition (F. tularensis Schu S4 [1]) | further results
21 | COc1ccc(C2(O)C=C(C)NN2C(=O)c2ccccc2)cc1 (centres unmarked) [Compound 40, N2(NC( = CC2(O)c3ccc(cc3)OC)C)C( = O)c1ccccc1] | No | 
22 | NC(=O)COc1cccnc1C(=O)O [Compound 32, NC( = O)COc1c(nccc1)C( = O)O] | No | 
23 | O=[N+]([O-])c1ccc(NC2OC(CO)C(O)C(O)C2O)cc1 (centres unmarked) [Compound 22, [N+]( = O)([O-])c1ccc(cc1)NC2OC(C(C(C2O)O)O)CO] | No | 
24 | Cc1cc(Nc2ccccc2)n(C(=O)c2ccc(Cl)cc2)n1 [Compound 14, Clc1ccc(cc1)C( = O)[n]2nc(cc2Nc3ccccc3)C] | showed activity against the bacteria and Yes | MIC (F. tularensis Schu S4 [2]): 4 µg/mL (≈ 12.8 µM); Reduction of growth versus no-compound control (F. tularensis Schu S4 [1]): completely abolished bacterial growth
25 | COc1ccc([C@@H]2CC(=O)c3c(O)cc(O)cc3O2)cc1O [Compound 33, O1[C@@H](CC( = O)c3c1cc(cc3O)O)c2cc(c(cc2)OC)O] | No | 
26 | C=C(O[C@@H]1C=C(C(=O)O)C=C[C@H]1O)C(=O)O [Compound 8, O([C@H]1[C@@H](C = CC( = C1)C( = O)O)O)C( = C)C( = O)O] | No | 
27 | Cc1ccc(OC2OC(CO)C(O)C(O)C2O)cc1C (centres unmarked) [Compound 23, O1C(C(C(C(C1CO)O)O)O)Oc2cc(c(cc2)C)C] | No | 
28 | N#Cc1ccc(Oc2ccccc2O)c(F)c1 [Compound 16, Fc1c(ccc(c1)C#N)Oc2c(cccc2)O] | No | 
29 | OCC1OC(Nc2ccccc2)C(O)C(O)C1O (centres unmarked) [Compound 26, N(C2OC(C(C(C2O)O)O)CO)c1ccccc1] | No | 
30 | NC(=O)c1ccc(Oc2ccccc2O)c(F)c1 [Compound 17, Fc1c(ccc(c1)C( = O)N)Oc2c(cccc2)O] | No | 
31 | O.O.O=C1NC(c2ccccc2)(c2ccccc2)C(=O)N1COP(=O)(O)O [Compound 2, [P]( = O)([O-])([O-])OCN1C( = O)NC(C1 = O)(c3ccccc3)c2ccccc2.O.O] | No | 
32 | O=Cc1cnn2c(=O)c3ccccc3[nH]c12 [Compound 12, [n]21ncc(c2Nc3c(cccc3)C1 = O)C = O] | showed activity against the bacteria and Yes | MIC (F. tularensis Schu S4 [2]): 63 µg/mL (≈ 296 µM)
33 | CC(c1cc2ccccc2s1)N(O)C(N)=O (centres unmarked) [Compound 3, [s]1c2c(cc1C(N(O)C( = O)N)C)cccc2] | No | 
34 | COc1cc(C=O)ccc1OCc1ccccc1COc1ccc(/C=C2/SC(=S)NC2=O)cc1OC [Compound 11, S1\C( = C\c2cc(c(cc2)OCc3c(cccc3)COc4c(cc(cc4)C = O)OC)OC)\C( = O)NC1 = S] | No | 
35 | Cc1cc(CC(N)C(=O)O)on1 (centres unmarked) [Compound 6, NC(Cc1[o]nc(c1)C)C( = O)O] | No | 
36 | N2(NC( = CC2(O)c3cc(ccc3)OC)CC)C( = O)c1ccccc1 [Compound 38] | No | 
37 | Cc1ccc(-c2cc(C(F)(F)F)nn2-c2ccc(S(N)(=O)=O)cc2)cc1 [Compound 4, FC(F)(F)c1n[n](c(c1)c3ccc(cc3)C)c2ccc(cc2)[S]( = O)( = O)N] | No | 
38 | CCOc1ccc(NC2OC(CO)C(O)C(O)C2O)cc1 (centres unmarked) [Compound 25, N(C2OC(C(C(C2O)O)O)CO)c1ccc(cc1)OCC] | No | 
39 | CCOC(=O)c1cc2c(nc1C(=O)OCC)CCCC2=O [Compound 31, n1c2c(cc(c1C( = O)OCC)C( = O)OCC)C( = O)CCC2] | No | 
40 | NC(=O)c1ncn([C@@H]2O[C@H](CO)C(O)C2O)c1N (some centres unmarked) [Compound 30, [n]2(cnc(c2N)C( = O)N)[C@@H]1O[C@@H](C(C1O)O)CO] | No | 
